In PubChem BioAssay AID328 (DTP/NCI, 2004):
Values joined by “and” are separate entries in the source; they are usually repeats but may differ in a detail not shown here. Identical values can stand only once. Toxic doses and inconclusive results are not listed. The calls were made as follows: active = survival T/C of 150% or more; inactive = T/C below 125% in these data.

Tested on: BDF1 mice, P388 leukemia ip, median survival T/C
Assay: NCI In Vivo Anticancer Drug Screen. Data for tumor model P388 Leukemia (intraperitoneal) in B6D2F1 (BDF1) mice
Details: endpoint: median survival time, higher = longer survival
In short: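 Transplantable tumour in mice; compound vs vehicle dosing; survival scored; ratio of treated to control reported.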

[1] = dose: 100.0 mg/kg/injection, schedule: Q04DX003 (ip), vehicle: Klucel (hydroxypropylcellulose) (HPC)
[2] = dose: 200.0 mg/kg/injection, schedule: Q04DX003 (ip), vehicle: Klucel (hydroxypropylcellulose) (HPC)
[3] = dose: 50.0 mg/kg/injection, schedule: Q01DX009 (ip), vehicle: saline with Tween-80
[4] = dose: 100.0 mg/kg/injection, schedule: Q01DX009 (ip), vehicle: saline with Tween-80
[5] = dose: 3.13 mg/kg/injection, schedule: Q01DX009 (ip), vehicle: Klucel (hydroxypropylcellulose) (HPC)
[6] = dose: 6.25 mg/kg/injection, schedule: Q01DX009 (ip), vehicle: Klucel (hydroxypropylcellulose) (HPC)
[7] = dose: 12.5 mg/kg/injection, schedule: Q01DX009 (ip), vehicle: saline with Tween-80
[8] = dose: 25.0 mg/kg/injection, schedule: Q01DX009 (ip), vehicle: saline with Tween-80
[9] = dose: 100.0 mg/kg/injection, schedule: Q04DX003 (ip), vehicle: saline with Tween-80
[10] = dose: 200.0 mg/kg/injection, schedule: Q04DX003 (ip), vehicle: saline with Tween-80
[11] = dose: 400.0 mg/kg/injection, schedule: Q04DX003 (ip), vehicle: saline with Tween-80
[12] = dose: 200.0 mg/kg/injection, schedule: Q01DX009 (ip), vehicle: saline with Tween-80

Measured: T/C

CC(C(=O)c1cccs1)C(O)(C(F)(F)F)C(F)(F)F (stereo not drawn)
inactive: [1] 91 % of control | [2] 91 % of control

CCOC(=O)/C(C#N)=C/N(C)Cc1ccccc1
inactive: [3] 108 % of control | [4] 105 % of control

COc1cc2oc3c(c(=O)c2c(O)c1/C=C/C(C)C)CCC(C)(C)Oc1cc(O)ccc1-3
inactive: [5] 96 % of control | [6] 94 % of control | dose: 12.5 mg/kg/injection, schedule: Q01DX009 (ip), vehicle: Klucel (hydroxypropylcellulose) (HPC) 94 % of control | dose: 25.0 mg/kg/injection, schedule: Q01DX009 (ip), vehicle: Klucel (hydroxypropylcellulose) (HPC) 103 % of control

[NH2-].[NH2-].[NH2-].[NH2-].[Pt+4]
inactive: [7] 90 % of control | [8] 100 % of control | [3] 90 % of control

CCOc1nc(S(=O)(=O)CC)ncc1C
inactive: [8] 92 % of control | dose: 75.0 mg/kg/injection, schedule: Q01DX009 (ip), vehicle: saline with Tween-80 90 % of control | [9] 105 % of control | dose: 150.0 mg/kg/injection, schedule: Q01DX009 (ip), vehicle: saline with Tween-80 106 % of control | [10] 96 % of control | [11] 96 % of control

S=C1CCNCC1
inactive: dose: 12.5 mg/kg/injection, schedule: Q01DX009 (ip), vehicle: saline 95 % of control | dose: 25.0 mg/kg/injection, schedule: Q01DX009 (ip), vehicle: saline 86 % of control | dose: 50.0 mg/kg/injection, schedule: Q01DX009 (ip), vehicle: saline 100 % of control

CC1=Cc2ccc(C)cc2C(=O)C1=O
inactive: [5] 102 % of control | [6] 108 % of control

C=CCOB(OCC=C)OCC=C
inactive: dose: 12.5 mg/kg/injection, schedule: Q04DX003 (ip), vehicle: saline 108 % of control | dose: 25.0 mg/kg/injection, schedule: Q04DX003 (ip), vehicle: saline 100 % of control | dose: 50.0 mg/kg/injection, schedule: Q04DX003 (ip), vehicle: saline 91 % of control

COc1cccc(CC(=O)C(=O)O)c1
inactive: dose: 50.0 mg/kg/injection, schedule: Q01DX009 (ip), vehicle: Klucel (hydroxypropylcellulose) (HPC) 95 % of control | dose: 50.0 mg/kg/injection, schedule: Q04DX003 (ip), vehicle: Klucel (hydroxypropylcellulose) (HPC) 100 % of control | dose: 100.0 mg/kg/injection, schedule: Q01DX009 (ip), vehicle: Klucel (hydroxypropylcellulose) (HPC) 104 % of control | [1] 115 % of control | dose: 200.0 mg/kg/injection, schedule: Q01DX009 (ip), vehicle: Klucel (hydroxypropylcellulose) (HPC) 90 % of control | [2] 110 % of control

Brc1csc2ncccc12
inactive: [1] 90 % of control | [2] 109 % of control

C=CCCCCCCCCC(=O)NC[n+]1cccc(O)c1
inactive: [8] 110 % of control | [3] 100 % of control | [4] 100 % of control

CC1CC[N-]CC1.CC1CC[N-]CC1.CC1CC[N-]CC1.CC1CC[N-]CC1.[Pt+4]
inactive: dose: 0.09 mg/kg/injection, schedule: Q01DX009 (ip), vehicle: saline 88 % of control | dose: 0.19 mg/kg/injection, schedule: Q01DX009 (ip), vehicle: saline 93 % of control | dose: 0.23 mg/kg/injection, schedule: Q01DX009 (ip), vehicle: saline 88 % of control | dose: 0.25 mg/kg/injection, schedule: Q01DX009 (ip), vehicle: saline 102 % of control | dose: 0.39 mg/kg/injection, schedule: Q01DX009 (ip), vehicle: saline 92 % of control | dose: 0.5 mg/kg/injection, schedule: Q01DX009 (ip), vehicle: saline 102 % of control | dose: 0.65 mg/kg/injection, schedule: Q01DX009 (ip), vehicle: saline 92 % of control | dose: 0.78 mg/kg/injection, schedule: Q01DX009 (ip), vehicle: saline 88 % of control and 105 % of control | dose: 1.0 mg/kg/injection, schedule: Q01DX009 (ip), vehicle: saline 112 % of control | dose: 1.56 mg/kg/injection, schedule: Q01DX009 (ip), vehicle: saline 90 % of control | dose: 1.56 mg/kg/injection, schedule: Q04DX003 (ip), vehicle: saline 109 % of control | dose: 2.0 mg/kg/injection, schedule: Q01DX009 (ip), vehicle: saline 103 % of control | dose: 3.12 mg/kg/injection, schedule: Q04DX003 (ip), vehicle: saline 95 % of control

CCOC(=O)/C=C(/C)SC1=CC(=O)c2ccccc2C1=O
inactive: dose: 1.56 mg/kg/injection, schedule: Q01DX009 (ip), vehicle: saline with Tween-80 107 % of control and 113 % of control | dose: 3.13 mg/kg/injection, schedule: Q01DX009 (ip), vehicle: saline with Tween-80 106 % of control and 107 % of control | dose: 6.25 mg/kg/injection, schedule: Q01DX009 (ip), vehicle: saline with Tween-80 104 % of control and 117 % of control | [7] 107 % of control and 115 % of control

CCOC(=O)C(CSCSC)NC(=O)/C=C/c1cccnc1 (stereo not drawn)
inactive: dose: 100.0 mg/kg/injection, schedule: Q01DX009 (ip), vehicle: saline 96 % of control | [9] 91 % of control | dose: 200.0 mg/kg/injection, schedule: Q01DX009 (ip), vehicle: saline 106 % of control | [10] 91 % of control | dose: 400.0 mg/kg/injection, schedule: Q01DX009 (ip), vehicle: saline 104 % of control | [11] 120 % of control

CC(=O)Nc1ccc2c(c1)OCO2
inactive: [3] 104 % of control | [4] 104 % of control | [9] 95 % of control | [12] 90 % of control | [10] 113 % of control

O=C(O)CCC1(c2ccccc2)CCCC1
inactive: dose: 25.0 mg/kg/injection, schedule: Q01DX009 (ip), vehicle: water 91 % of control | dose: 50.0 mg/kg/injection, schedule: Q01DX009 (ip), vehicle: water 88 % of control | dose: 100.0 mg/kg/injection, schedule: Q01DX009 (ip), vehicle: water 103 % of control | dose: 200.0 mg/kg/injection, schedule: Q01DX009 (ip), vehicle: water 97 % of control | dose: 300.0 mg/kg/injection, schedule: Q01DX009 (ip), vehicle: water 106 % of control

Brc1cc(Br)c(I)c(Br)c1
inactive: dose: 100.0 mg/kg/injection, schedule: Q01DX009 (ip), vehicle: other 105 % of control | dose: 200.0 mg/kg/injection, schedule: Q01DX009 (ip), vehicle: other 100 % of control | dose: 400.0 mg/kg/injection, schedule: Q01DX009 (ip), vehicle: other 90 % of control

CC1=CC(C)(C)Nc2ccc(CSc3ccccc3)cc21
inactive: dose: 50.0 mg/kg/injection, schedule: Q01DX009 (ip), vehicle: saline + alcohol 102 % of control | dose: 100.0 mg/kg/injection, schedule: Q01DX009 (ip), vehicle: saline + alcohol 120 % of control | dose: 200.0 mg/kg/injection, schedule: Q01DX009 (ip), vehicle: saline + alcohol 120 % of control

CCOC(=O)/C=C(\C)C(=O)c1ccc(OC)c(OC)c1OCc1ccccc1
inactive: [7] 100 % of control | [8] 100 % of control | [3] 90 % of control | [4] 90 % of control | [12] 100 % of control

N#CC1c2ccccc2C=CN1C(=O)c1ccccc1 (stereo not drawn)
inactive: [3] 115 % of control | [4] 110 % of control | [1] 100 % of control | [9] 100 % of control | [12] 110 % of control | [2] 109 % of control | [10] 100 % of control | dose: 400.0 mg/kg/injection, schedule: Q01DX009 (ip), vehicle: saline with Tween-80 110 % of control | dose: 400.0 mg/kg/injection, schedule: Q04DX003 (ip), vehicle: Klucel (hydroxypropylcellulose) (HPC) 109 % of control | [11] 100 % of control

CCOC(=O)/C(=C/C(C#N)=C/N(C)C)CC
inactive: dose: 100.0 mg/kg/injection, schedule: Q01DX001 (ip), vehicle: other 100 % of control | dose: 200.0 mg/kg/injection, schedule: Q01DX001 (ip), vehicle: other 109 % of control | dose: 400.0 mg/kg/injection, schedule: Q01DX001 (ip), vehicle: other 109 % of control

CC1CN(Cc2ccccc2)CC(C)N1 (stereo not drawn)
inactive: dose: 50.0 mg/kg/injection, schedule: Q04DX003 (ip), vehicle: water 106 % of control | dose: 100.0 mg/kg/injection, schedule: Q04DX003 (ip), vehicle: water 104 % of control | dose: 200.0 mg/kg/injection, schedule: Q04DX003 (ip), vehicle: water 92 % of control

CCOC(=O)C1=C(C)NC(C)=C(C(=O)OCC)C1c1ccccc1
inactive: [3] 95 % of control | [12] 95 % of control
